Experimental data from PMC2784637 (Biochemistry, 2009).

Target: T1, cyt bc1 (ubihydroquinone:cytochrome c oxidoreductase) (Rhodobacter capsulatus, UniProt D5ANZ2+D5ANZ3)
T1 sequence (D5ANZ3 2-437): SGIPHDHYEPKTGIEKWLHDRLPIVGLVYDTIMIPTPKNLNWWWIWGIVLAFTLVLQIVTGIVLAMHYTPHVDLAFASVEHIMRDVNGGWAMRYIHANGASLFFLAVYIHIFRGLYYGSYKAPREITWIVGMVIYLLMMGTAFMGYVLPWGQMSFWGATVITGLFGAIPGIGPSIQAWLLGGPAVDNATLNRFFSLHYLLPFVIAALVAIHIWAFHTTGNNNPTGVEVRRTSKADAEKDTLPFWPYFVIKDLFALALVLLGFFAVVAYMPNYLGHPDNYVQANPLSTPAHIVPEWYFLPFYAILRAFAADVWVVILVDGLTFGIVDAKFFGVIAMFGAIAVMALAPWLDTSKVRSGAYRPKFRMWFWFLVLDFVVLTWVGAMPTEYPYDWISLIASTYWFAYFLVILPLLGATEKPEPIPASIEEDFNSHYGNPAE
T1 sequence (D5ANZ2 1-191): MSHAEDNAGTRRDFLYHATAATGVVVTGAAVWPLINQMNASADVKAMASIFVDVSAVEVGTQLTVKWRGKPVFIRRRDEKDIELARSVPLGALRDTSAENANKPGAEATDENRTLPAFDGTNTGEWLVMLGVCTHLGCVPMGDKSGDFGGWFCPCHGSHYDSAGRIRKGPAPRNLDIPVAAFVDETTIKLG
T1 sequence (D5ANZ4 22-279 partner): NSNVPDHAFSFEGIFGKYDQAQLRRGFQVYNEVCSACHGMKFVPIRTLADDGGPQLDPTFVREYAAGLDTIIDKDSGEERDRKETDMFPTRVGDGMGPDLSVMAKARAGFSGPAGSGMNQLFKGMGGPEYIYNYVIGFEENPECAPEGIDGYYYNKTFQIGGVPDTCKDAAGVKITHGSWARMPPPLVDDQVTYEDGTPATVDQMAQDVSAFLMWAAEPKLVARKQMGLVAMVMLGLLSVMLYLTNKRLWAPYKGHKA
Assay: light-activated cyt b reduction and cyt c rereduction kinetics
Type: biochemical
Conditions: chromatophore membranes, 10 uM, pH 7.0, Eh 100 mV; Qo site

SMILES: CO/C(=C/C(N)=O)[C@H](C)[C@H](/C=C/c1csc(-c2csc([C@@H](C)/C=C/C=C/C(C)C)n2)n1)OC [myxothiazol]
- light-activated cyt b reduction and cyt c rereduction kinetics: addition of myxothiazol completely abolished the kinetics by displacing the Qo site occupant
